Columns and labels:
Cell Line 1 [1] = experiment: N-glycan oligosaccharide profiling, Cell Line 1 in 3 L laboratory-scale bioreactors; type: cell-based, Chinese Hamster; conditions: 50 mM supplement
Protocol: Purified antibodies subjected to additional analytical characterization were purified using MabSelect™ Protein A (GE Healthcare, Piscataway, N.J.) using a low pH, step elution gradient, followed by buffer exchange using Corning Lifesciences (Tewksbury, Mass.) Spin Concentrator X UF columns according to the manufacturers' recommended procedures.
Approximately 200 μg of Protein A purified samples from Cell Lines 1 and 2 were treated with N-glycanase at 37° C. overnight to remove the N-glycans from the protein. The protein was precipitated and the supernatant was taken for subsequent chemical derivatization of the reducing end of the released glycans with 2-aminobenzamide (2-AB) dye. Following the derivatization step, the excess label was removed using clean up cartridges and the samples were analyzed using normal phase HPLC with fluorescent detection. Mobile phase A was 100% acetonitrile and mobile phase B was 50 mM ammonium formate pH 4.4. The glycans were eluted from a polyamide column (Prozyme, Hayward, Calif.) using a shallow gradient. The labeled glycans were detected using a fluorescence detector with an excitation wavelength of 330 nm and an emission wavelength of 420 nm.
(§1) 3 L scale-down model bioreactors were utilized to verify the impact of select sugars on the resulting protein glycosylation profiles. The concentration of the sucrose and tagatose was chosen to minimize any potential adverse impact on cell growth and productivity, but still facilitate a measurable modulation of the glycosylation profile. Cell culture process performance indicators were monitored and measured throughout the respective cultures. Viable cell density, cell viability, lactate, pCO2, osmolality, harvest titer, and harvest N-glycan oligosaccharide data were measured and reported.
3 L scale laboratory bioreactors were utilized to verify the impact of sucrose, tagatose, or fructose on protein glycosylation profiles. Concentrations of the sugars were chosen to minimize any potential adverse impacts on cell growth and productivity, but still facilitate a measurable impact on the glycoform profile. Cell culture process performance indicators were monitored and measured throughout the study. Viable cell density, cell viability, lactate, pCO2, osmolality, harvest titer, and harvest N-glycan oligosaccharide data was measured and reported.

Cell Line 1 [2] = experiment: 3 L laboratory-scale bioreactor culture of Cell Line 1, cell culture performance; type: cell-based, Chinese Hamster
Protocol: Two recombinant Chinese Hamster Ovary (CHO) cell lines expressing two different humanized monoclonal antibodies (Antibody 1, Antibody 2) were evaluated in two different culture vessels (shaker flasks and laboratory scale bioreactors). Both cell lines were of CHO DUX-B11 origin based on a dhfr (dihydrofolate reductase) expression system. Both cell lines were cultured in the same chemically defined basal media (CDBM), with Cell Line 1 also utilizing a chemically-defined feed media (CDFM). Each of the respective media were supplemented with selected monosaccharides and oligosaccharides to evaluate their potential impact on the resulting N-glycan oligosaccharide profile. In preparing the cultures, the cell lines were serially expanded through separate seed train inoculums to generate enough cells for inoculation.
(§2) Viable cell density (VCD) and cell viability values were measured through trypan blue exclusion via Cedex automated cell counters (Roche Applied Science, Indianapolis, Ind.), glucose and lactate values were measured with a ABL-805 (Radiometer Medical, Denmark) blood gas analyzer. Offline pH, dissolved oxygen (DO), and pCO2 measurements were performed with a ABL-805 (Radiometer Medical, Denmark) blood gas analyzer. Osmolality was measured on a Multi-Osmette 2430 osmometer (Precision Systems, Natick, Mass.).
Antibody titers were measured from crude cell culture harvests on a Poros A™ (Life Technologies, Carlsbad, Calif.) affinity column using an Agilent (Santa Clara, Calif.) 1200 Series HPLC, or equivalent, operating with a low pH, step elution gradient with detection at 280 nm. Absolute concentrations were assigned with respect to reference standard calibration curves.
as §1
Two recombinant Chinese Hamster Ovary (CHO) cell lines expressing two different recombinant glycoproteins were evaluated in two different cultures vessels (shaker flasks and 3 L laboratory scale bioreactors). Cell Line 1 expressed Antibody 1, Cell Line 2 expressed Dual Variable Domain Immunoglobulin 1 (DVD 1) and Cell Line 3 expressed Antibody 2. Antibodies 1 and 2 are IgG1 proteins, and DVD 1 is an immunoglobulin with two variable domains as documented previously (Wu C. et al., (2007) Nat. Biotechnol 25(11):1290-1297). All cell lines were of CHO DUX-B11 origin based on a dhfr (dihydrofolate reductase) expression system. All cell lines were cultured in the same chemically defined basal media. Cell lines 1 and 2 were fed with the same chemically-defined feed media, but Cell Line 1 was fed media that was formulated at a 50% higher concentration. Each of the respective media were supplemented with either sucrose or tagatose to evaluate their potential impact on the resulting N-glycan oligosaccharide profile. All sugars were purchased from Sigma-Aldrich (St. Louis, Mo.). In preparation of the cultures, the cell lines were serially expanded through separate seed train inoculums to generate enough cells for inoculation.
as §2, with “performed with an ABL-805 (Radiometer” for “performed with a ABL-805 (Radiometer”, “gas analyzer. […]” for “gas analyzer. Osmolality was measured on a Multi-Osmette 2430 osmometer (Precision Systems, Natick, Mass.).”

With `O=C(CO)[C@@H](O)[C@H](O)[C@H](O)CO` [fructose, reference compound] the “changes in protein glycosylation compared to the control” value (Cell Line 1 [1]) was “did not facilitate any significant changes in protein glycosylation”, the Osmolality (Cell Line 1 [2]; 50 mM supplement vs control) was “only slightly higher” and the cell viability (Cell Line 1 [2]; 50 mM supplement vs control) was “no impact”. For the same compound, the viable cell density (Cell Line 1 [2]; 50 mM supplement vs control) was “no impact” and the “final harvest titer ratio” value (Cell Line 1 [2]; 50 mM supplement, relative to unsupplemented control) was 0.81.

— patent US9499614B2, “Methods for modulating protein glycosylation profiles of recombinant protein therapeutics using monosaccharides and oligosaccharides” (AbbVie, Inc., priority 2013, dated 2016)
